Columns and labels:
[1] = target: sst2a receptor expressed on CHO-K1 cells (UniProt P30874); assay: cell-based or functional assay
[2] = cited from earlier work
[3] = CellTiter-Glo Luminescent Cell Viability Assay (cytotoxicity); conditions: Chinese hamster; for cytotoxicity at 20 minutes, 0.01 µM: Cytotoxicity %
Experimental: Conjugated Complex has been tested in CHO cells expressing human recombinant sst2a. Cell viability was measured using the CellTiter-Glo® Luminescent Cell Viability Assay (Promega) that determines the number of viable cells in culture, based on quantitation of the ATP present that is an indicator of metabolically active cells.
After dispensing test compounds to the wells, cells in the incubation buffer were added to the wells and incubated for 20 minutes. At the end of incubation, CellTiter-Glo was added to each well to measure luminescence.

[4] = Stability in rat plasma in vitro; type: in vitro ADME
Experimental: SST-Albumin fusion proteins may have a longer serum half-life and/or more stabilized activity in solution or in a pharmaceutical composition in vitro and/or in vivo compared to the corresponding unfused SST molecules. In rat plasma, for example, more than 90% of SST fusion protein was detected until 40 minutes of incubation, and more than 70% of SST fusion proteins remained up to at least 180 min. Under the same conditions, less than about 50% of free SST remained after 40 minute incubation, and no free SST was detected beyond 120 minutes. […] Thus, it would take about 72 hours for the concentration of SST fusion protein to reach zero concentration in plasma.
The stability of free SST and SST fusion protein was compared in in vitro rat plasma.

UniProt P30874, sequence (P30874 whole entry): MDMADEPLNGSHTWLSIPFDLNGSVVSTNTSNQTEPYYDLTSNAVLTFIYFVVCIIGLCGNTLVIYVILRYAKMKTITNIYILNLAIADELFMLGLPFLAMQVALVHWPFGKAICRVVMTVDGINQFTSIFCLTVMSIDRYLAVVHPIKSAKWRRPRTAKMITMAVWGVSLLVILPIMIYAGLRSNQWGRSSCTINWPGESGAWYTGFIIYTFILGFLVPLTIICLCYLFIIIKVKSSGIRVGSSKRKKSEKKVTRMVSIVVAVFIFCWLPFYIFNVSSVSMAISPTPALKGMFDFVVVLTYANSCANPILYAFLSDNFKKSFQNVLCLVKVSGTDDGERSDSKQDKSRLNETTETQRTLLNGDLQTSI

Q: For Octreotide (peptide), which EC50 (adenylyl cyclase assay, CHO-K1 cells expressing sst2a receptor) [1] is on record?
A: 0.039 nM

Q: Which half-life [2] does the source give for insulin-like growth factor-I [IGF-1] here?
A: 10 to 20 min

Q: Which cytotoxicity at 20 minutes, 0.01 µM ([3]; Test 2, 10 nM) does the source give for `C[C@@H](O)[C@@H]1NC(=O)[C@H](CCCCN)NC(=O)[C@@H](Cc2c[nH]c3ccccc23)NC(=O)[C@H](Cc2ccccc2)NC(=O)[C@@H](NC(=O)[C@H](N)Cc2ccccc2)CSSC[C@@H](C(=O)N[C@H](CO)[C@@H](C)O)NC1=O` [Octreotide] here?
A: 8%

Q: And the cytotoxicity at 20 minutes, 0.01 µM ([3]; test 1, 10 nM)?
A: -4%

Q: With `C[C@H](N)C(=O)NCC(=O)N[C@H]1CSSC[C@@H](C(=O)O)NC(=O)[C@H](CO)NC(=O)[C@H]([C@@H](C)O)NC(=O)[C@H](Cc2ccccc2)NC(=O)[C@H]([C@@H](C)O)NC(=O)[C@H](CCCCN)NC(=O)[C@H](Cc2c[nH]c3ccccc23)NC(=O)[C@H](Cc2ccccc2)NC(=O)[C@H](Cc2ccccc2)NC(=O)[C@H](CC(N)=O)NC(=O)[C@H](CCCCN)NC1=O` [free SST, somatostatin] as the compound, how does the “time up to which detected in rat plasma (not detected beyond)” value ([4]; rat plasma incubation) read?
A: ≤ 120 min

Q: What about the remaining at 40 min ([4]; rat plasma, 40 minutes of incubation, read-out: fraction detected/remaining in rat plasma) of the same compound?
A: < 50%

Q: For `C[C@@H]1CC[C@@]2(OC1)O[C@H]1[C@@H](O)[C@H]3[C@@H]4CC[C@H]5C[C@@H](O[C@@H]6O[C@H](CO)[C@H](O[C@@H]7O[C@H](CO)[C@@H](O)[C@H](O[C@@H]8OC[C@@H](O)[C@H](O)[C@H]8O)[C@H]7O[C@@H]7O[C@H](CO)[C@H](O)[C@H](O[C@@H]8O[C@H](CO)[C@@H](O)[C@H](O)[C@H]8O)[C@H]7O)[C@H](O)[C@H]6O)[C@H](O)C[C@]5(C)[C@H]4CC[C@]3(C)[C@H]1[C@@H]2C` [Digitonin], which cytotoxicity at 20 min, 20 mg/ml [3] is on record?
A: 100%

Source: patent US20200230068A1, “COMPOSITIONS AND METHODS OF DELIVERY OF PHARMACOLOGICAL AGENTS” (NAL PHARMACEUTICAL GROUP LIMITED, priority 2017, published 2020)
